Test results: patent US11446287B2, “Compounds and methods for EP300 or CBP modulation and indications therefor” (Opna Immuno-Oncology SA, priority 2019, dated 2022)

target: T1, Recombinant human EP300 containing the bromodomain (EP300-BD (1040-1161)) (Homo sapiens, UniProt Q09472); assay: EP300 Alphascreen binding assay
T1 construct: Recombinant human EP300 bromodomain (EP300-BD (1040-1161)); made in house; host or cells: E. coli BL21-CodonPlus (DE3), modified pET vector
T1 sequence (Q09472 1040-1161): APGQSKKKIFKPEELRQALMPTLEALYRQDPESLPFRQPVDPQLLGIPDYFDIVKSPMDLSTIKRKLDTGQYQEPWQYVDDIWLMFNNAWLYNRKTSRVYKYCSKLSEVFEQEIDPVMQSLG
Method in brief: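 Displacement of a biotinylated acetyl-K56 histone H3 peptide from the N-His bromodomain construct (1040-1161) measured by AlphaScreen proximity, beads at 7.5 μg/ml final, read 60 min after addition. Protein, peptide and compound first incubated 1 h at room temperature, pH 7.5 HEPES buffer; IC50 by four-parameter logistic fit.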

Row | SMILES | IC50 [nM]
1 | Cc1noc(C)c1-c1cnc2c(c1)c(-c1c(Cl)cc(C(=O)O)cc1OCC(F)F)cn2-c1cnc(N2CCC2)nc1 [P-0331, 4-(1-(2-(azetidin-1-yl)pyrimidin-5-yl)-5-(3,5-dimethylisoxazol-4-yl)-1H-pyrrolo[2,3-b]pyridin-3-yl)-3-chloro-5-(2,2-difluoroethoxy)benzoic acid] | 0.1 to 1000
2 | Cc1noc(C)c1-c1cnc2c(c1)c(-c1c(Cl)cc(C(=O)O)cc1OCC(F)F)cn2-c1ccccc1 [P-0332, 3-chloro-5-(2,2-difluoroethoxy)-4-(5-(3,5-dimethylisoxazol-4-yl)-1-phenyl-1H-pyrrolo[2,3-b]pyridin-3-yl)benzoic acid] | 0.1 to 1000
3 | Cc1noc(C)c1-c1cnc2c(c1)c(-c1c(Cl)cc(C(=O)O)cc1OCC(F)F)cn2[C@H]1CCOC1 [P-0333, (S)-3-chloro-5-(2,2-difluoroethoxy)-4-(5-(3,5-dimethylisoxazol-4-yl)-1-(tetrahydrofuran-3-yl)-1H-pyrrolo[2,3-b]pyridin-3-yl)benzoic acid] | 0.1 to 1000
4 | Cc1noc(C)c1-c1cnc2c(c1)c(-c1ccc(C(=O)O)cc1OC1CCC1)cn2-c1ncccc1C#N [P-0334, 4-(1-(3-cyanopyridin-2-yl)-5-(3,5-dimethylisoxazol-4-yl)-1H-pyrrolo[2,3-b]pyridin-3-yl)-3-cyclobutoxybenzoic acid] | 0.1 to 1000
5 | Cc1noc(C)c1-c1cnc2c(c1)c(-c1ccc(C(=O)O)cc1OC(F)(F)F)cn2C1(CC#N)CCC1 [P-0335, 4-(1-(1-(cyanomethyl)cyclobutyl)-5-(3,5-dimethylisoxazol-4-yl)-1H-pyrrolo[2,3-b]pyridin-3-yl)-3-(trifluoromethoxy)benzoic acid] | 0.1 to 1000
6 | Cc1noc(C)c1-c1cnc2c(c1)c(-c1ccc(C(=O)O)cc1OC(C)C)cn2-c1ncccc1C#N [P-0336, 4-(1-(3-cyanopyridin-2-yl)-5-(3,5-dimethylisoxazol-4-yl)-1H-pyrrolo[2,3-b]pyridin-3-yl)-3-isopropoxybenzoic acid] | 0.1 to 1000
7 | Cc1noc(C)c1-c1cnc2c(c1)c(-c1ccc(C(=O)O)cc1OC1CC1)cn2-c1ncccc1C#N [P-0337, 4-(1-(3-cyanopyridin-2-yl)-5-(3,5-dimethylisoxazol-4-yl)-1H-pyrrolo[2,3-b]pyridin-3-yl)-3-cyclopropoxybenzoic acid] | 0.1 to 1000
8 | Cc1noc(C)c1-c1cnc2c(c1)c(-c1ccc(C(=O)O)cc1OCC(F)F)cn2C(C1CC1)C1CC1 [P-0338, 4-(1-(dicyclopropylmethyl)-5-(3,5-dimethylisoxazol-4-yl)-1H-pyrrolo[2,3-b]pyridin-3-yl)-3-(2,2-difluoroethoxy)benzoic acid] | 0.1 to 1000
9 | COc1cc(C(=O)O)ncc1-c1cn(C(C2CC2)C2CC2)c2ncc(-c3c(C)noc3C)cc12 [P-0339, 5-(1-(dicyclopropylmethyl)-5-(3,5-dimethylisoxazol-4-yl)-1H-pyrrolo[2,3-b]pyridin-3-yl)-4-methoxypicolinic acid] | 0.1 to 1000
10 | Cc1noc(C)c1-c1cnc2c(c1)c(-c1c(Cl)cc(C(=O)O)cc1OCC(F)F)cn2C(C1CC1)C1CC1 [P-0340, 3-chloro-4-(1-(dicyclopropylmethyl)-5-(3,5-dimethylisoxazol-4-yl)-1H-pyrrolo[2,3-b]pyridin-3-yl)-5-(2,2-difluoroethoxy)benzoic acid] | 0.1 to 1000
11 | Cc1noc(C)c1-c1cnc2c(c1)c(-c1ccc(C(=O)O)cc1OC1CCC1)cn2C1CCOCC1 [P-0341, 3-cyclobutoxy-4-(5-(3,5-dimethylisoxazol-4-yl)-1-(tetrahydro-2H-pyran-4-yl)-1H-pyrrolo[2,3-b]pyridin-3-yl)benzoic acid] | 0.1 to 1000
12 | Cc1noc(C)c1-c1cnc2c(c1)c(-c1ccc(C(=O)O)cc1OC(C)C)c(C)n2C(C1CC1)C1CC1 [P-0342, 4-(1-(dicyclopropylmethyl)-5-(3,5-dimethylisoxazol-4-yl)-2-methyl-1H-pyrrolo[2,3-b]pyridin-3-yl)-3-isopropoxybenzoic acid] | 0.1 to 1000
13 | Cc1noc(C)c1-c1cnc2c(c1)c(-c1ccc(C(=O)O)cc1OC(F)(F)F)c(C)n2C(C1CC1)C1CC1 [P-0343, 4-(1-(dicyclopropylmethyl)-5-(3,5-dimethylisoxazol-4-yl)-2-methyl-1H-pyrrolo[2,3-b]pyridin-3-yl)-3-(trifluoromethoxy)benzoic acid] | 0.1 to 1000
14 | Cc1noc(C)c1-c1ccc2c(c1)c(-c1ccc(C(=O)O)cc1OC(F)(F)F)cn2C(C1CC1)C1CC1 [P-0344, 4-(1-(dicyclopropylmethyl)-5-(3,5-dimethylisoxazol-4-yl)-1H-indol-3-yl)-3-(trifluoromethoxy)benzoic acid] | 0.1 to 1000
15 | Cc1noc(C)c1-c1cnc2c(c1)c(-c1ccc(C(=O)O)cc1OC(F)(F)F)c(C)n2-c1ncccc1C#N [P-0345, 4-(1-(3-cyanopyridin-2-yl)-5-(3,5-dimethylisoxazol-4-yl)-2-methyl-1H-pyrrolo[2,3-b]pyridin-3-yl)-3-(trifluoromethoxy)benzoic acid] | 0.1 to 1000
16 | Cc1noc(C)c1-c1cnc2c(c1)c(-c1c(Cl)cc(C(=O)O)cc1OC(F)(F)F)cn2[C@H]1CCOC1 [P-0346, (S)-3-chloro-4-(5-(3,5-dimethylisoxazol-4-yl)-1-(tetrahydrofuran-3-yl)-1H-pyrrolo[2,3-b]pyridin-3-yl)-5-(trifluoromethoxy)benzoic acid] | 0.1 to 1000
17 | Cc1noc(C)c1-c1cnc2c(c1)c(-c1ccc(C(=O)O)cc1OC1CCC1)cn2-c1cnc(N2CCC2)nc1 [P-0347, 4-(1-(2-(azetidin-1-yl)pyrimidin-5-yl)-5-(3,5-dimethylisoxazol-4-yl)-1H-pyrrolo[2,3-b]pyridin-3-yl)-3-cyclobutoxybenzoic acid] | 0.1 to 1000
18 | Cc1noc(C)c1-c1cnc2c(c1)c(-c1c(F)cc(C(=O)O)cc1OCC(F)F)cn2-c1cnc(N2CCC2)nc1 [P-0348, 4-(1-(2-(azetidin-1-yl)pyrimidin-5-yl)-5-(3,5-dimethylisoxazol-4-yl)-1H-pyrrolo[2,3-b]pyridin-3-yl)-3-(2,2-difluoroethoxy)-5-fluorobenzoic acid] | 0.1 to 1000
19 | Cc1nn(C(F)F)cc1-n1cc(-c2ccc(C(=O)O)cc2OCC(F)F)c2cc(-c3c(C)noc3C)cnc21 [P-0349, 3-(2,2-difluoroethoxy)-4-(1-(1-(difluoromethyl)-3-methyl-1H-pyrazol-4-yl)-5-(3,5-dimethylisoxazol-4-yl)-1H-pyrrolo[2,3-b]pyridin-3-yl)benzoic acid] | 0.1 to 1000
20 | Cc1noc(C)c1-c1cnc2c(c1)c(-c1ccc(C(=O)O)cc1OC1CCC1)cn2[C@H]1CCOC1 [P-0350, (S)-3-cyclobutoxy-4-(5-(3,5-dimethylisoxazol-4-yl)-1-(tetrahydrofuran-3-yl)-1H-pyrrolo[2,3-b]pyridin-3-yl)benzoic acid] | 0.1 to 1000
21 | Cc1nn(C(F)F)cc1-n1cc(-c2ccc(C(=O)O)cc2OC2CCC2)c2cc(-c3c(C)noc3C)cnc21 [P-0351, 3-cyclobutoxy-4-(1-(1-(difluoromethyl)-3-methyl-1H-pyrazol-4-yl)-5-(3,5-dimethylisoxazol-4-yl)-1H-pyrrolo[2,3-b]pyridin-3-yl)benzoic acid] | 0.1 to 1000
22 | Cc1noc(C)c1-c1cnc2c(c1)c(-c1c(Cl)cc(C(=O)O)cc1OCC(F)F)cn2-c1cnn(C(F)F)c1C [P-0352, 3-chloro-5-(2,2-difluoroethoxy)-4-(1-(1-(difluoromethyl)-5-methyl-1H-pyrazol-4-yl)-5-(3,5-dimethylisoxazol-4-yl)-1H-pyrrolo[2,3-b]pyridin-3-yl)benzoic acid] | 0.1 to 1000
23 | Cc1noc(C)c1-c1cnc2c(c1)c(-c1ccc(C(=O)O)cc1OC1CCC1)cn2-c1cnn(C(F)F)c1C [P-0353, 3-cyclobutoxy-4-(1-(1-(difluoromethyl)-5-methyl-1H-pyrazol-4-yl)-5-(3,5-dimethylisoxazol-4-yl)-1H-pyrrolo[2,3-b]pyridin-3-yl)benzoic acid] | 0.1 to 1000
24 | Cc1noc(C)c1-c1cnc2c(c1)c(-c1ccc(C(=O)O)cc1OC(C)C)cn2-c1cnn(C(F)F)c1C [P-0354, 4-(1-(1-(difluoromethyl)-5-methyl-1H-pyrazol-4-yl)-5-(3,5-dimethylisoxazol-4-yl)-1H-pyrrolo[2,3-b]pyridin-3-yl)-3-isopropoxybenzoic acid] | 0.1 to 1000
25 | Cc1noc(C)c1-c1cnc2c(c1)c(-c1c(Cl)cc(C(=O)O)cc1OC(F)(F)F)cn2C1CCOCC1 [P-0355, 3-chloro-4-(5-(3,5-dimethylisoxazol-4-yl)-1-(tetrahydro-2H-pyran-4-yl)-1H-pyrrolo[2,3-b]pyridin-3-yl)-5-(trifluoromethoxy)benzoic acid] | 0.1 to 1000
26 | Cc1noc(C)c1-c1cnc2c(c1)c(-c1c(Cl)cc(C(=O)O)cc1OC1CCC1)cn2C(C1CC1)C1CC1 [P-0356, 3-chloro-5-cyclobutoxy-4-(1-(dicyclopropylmethyl)-5-(3,5-dimethylisoxazol-4-yl)-1H-pyrrolo[2,3-b]pyridin-3-yl)benzoic acid] | 0.1 to 1000
27 | Cc1noc(C)c1-c1cnc2c(c1)c(-c1ccc(C(=O)O)cc1OC(C)C)cn2C1CCOCC1 [P-0357, 4-(5-(3,5-dimethylisoxazol-4-yl)-1-(tetrahydro-2H-pyran-4-yl)-1H-pyrrolo[2,3-b]pyridin-3-yl)-3-isopropoxybenzoic acid] | 0.1 to 1000
28 | Cc1noc(C)c1-c1cnc2c(c1)c(-c1c(Cl)cc(C(=O)O)cc1OC1CCC1)cn2C1CCOCC1 [P-0358, 3-chloro-5-cyclobutoxy-4-(5-(3,5-dimethylisoxazol-4-yl)-1-(tetrahydro-2H-pyran-4-yl)-1H-pyrrolo[2,3-b]pyridin-3-yl)benzoic acid] | 0.1 to 1000
29 | Cc1noc(C)c1-c1cnc2c(c1)c(-c1c(Cl)cc(C(=O)O)cc1OCC(F)F)cn2C1CCOCC1 [P-0359, 3-chloro-5-(2,2-difluoroethoxy)-4-(5-(3,5-dimethylisoxazol-4-yl)-1-(tetrahydro-2H-pyran-4-yl)-1H-pyrrolo[2,3-b]pyridin-3-yl)benzoic acid] | 0.1 to 1000
